The values below come from patent US5773414A, “Endothelin antagonists” (Warner-Lambert Company, priority 1997, dated 1998).

The structures appear in SMILES notation. Counter-ions that a name gives are not always drawn. Numbered stars: 1 amine (or outer) side, 2 acyl side, 3 side chain; on linkers, the order of the positions; unused ones are H or OH. Square brackets hold non-standard residues; d marks the D form. Peptide text beside a SMILES is read from it. * marks the point of attachment. X3 = Cc1c(C)c(C)c(C[C@@H](N[*:1])C(=O)[*:2])c(C)c1C; Acetyl(1-adamantyl) = O=C(CC12CC3CC(CC(C3)C1)C2)*; dDip = N[C@@H](C(=O)O)C(c1ccccc1)c1ccccc1; d1Nal = N[C@H](Cc1cccc2ccccc12)C(=O)O; Acetyl(3-pyridyl) = O=C(Cc1cccnc1)*; Fmoc = O=C(OCC1c2ccccc2-c2ccccc21)*; X1 = CC(C(=O)*)(c1ccccc1)c1ccccc1; Piv = CC(C)(C)C(=O)*; Tfa = O=C(C(F)(F)F)*

One test addresses T1, ETB (Rattus norvegicus, UniProt P21451).
T1 construct: thaw one aliquot of frozen rat cerebellar membranes; from tissue; host or cells: rat cerebellar membranes
T1 sequence (P21451 27-442): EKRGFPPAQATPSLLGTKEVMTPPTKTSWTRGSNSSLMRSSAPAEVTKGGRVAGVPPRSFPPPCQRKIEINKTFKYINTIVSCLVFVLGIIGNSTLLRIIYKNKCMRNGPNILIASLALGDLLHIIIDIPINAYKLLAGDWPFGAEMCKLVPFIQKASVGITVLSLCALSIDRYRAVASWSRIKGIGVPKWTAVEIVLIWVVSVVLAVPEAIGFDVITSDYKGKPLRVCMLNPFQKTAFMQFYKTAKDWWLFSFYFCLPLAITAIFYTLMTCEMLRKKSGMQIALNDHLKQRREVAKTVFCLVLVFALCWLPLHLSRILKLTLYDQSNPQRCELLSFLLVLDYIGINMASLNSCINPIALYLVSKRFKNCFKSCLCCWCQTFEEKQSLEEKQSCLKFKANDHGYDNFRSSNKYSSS
Nature of the test: Endothelin Receptor Binding Assay-B (ETB), [125I]-ET-1 binding in rat cerebellar membranes. As to conditions: Table IIa; for IC50: rat cerebellar membranes, read-out: Binding Assay IC50 at Receptor Subtypes ETB. As to the method: The tissue is made up of 20 mM tris(hydroxymethyl)aminomethane hydrochloride (Trizma) buffer, 2 mM ethylenediaminetetraacetate, 100 μM phenylmethylsulfonyl fluoride.
First, thaw one aliquot of frozen rat cerebellar membranes (2 mg protein in 0.5 mL). Next, add 0.5 mL membrane aliquot to 4.5 mL cold tissue buffer, polytron at 7,500 revolutions per minute for 10 seconds. Finally, dilute tissue suspension 1/100 (0.1 mL suspension+9.9 mL tissue buffer), polytron again, and place ice.
Mix in 150 μL of tissue to each tube, vortex briefly, then tap to force all liquids to bottom (total assay volume=250 μL). Then place the tubes in a 37° C. water bath for 2 hours.
Add 2.5 mL cold water buffer (50 mM Trizma buffer) to each tube, filter, and then wash tube with additional 2.5 mL wash buffer and add to filter. Finally, wash filters with an additional 2.5 mL of cold wash buffer.
Count filters for radioactivity in gamma counter.

The target in another test is T2, ETA (Oryctolagus cuniculus, UniProt A5A8K3).
T2 construct: The cells used were rabbit renal artery vascular smooth muscle cells; endogenous in cells; host or cells: rabbit renal artery vascular smooth muscle cells
T2 sequence (A5A8K3 21-427): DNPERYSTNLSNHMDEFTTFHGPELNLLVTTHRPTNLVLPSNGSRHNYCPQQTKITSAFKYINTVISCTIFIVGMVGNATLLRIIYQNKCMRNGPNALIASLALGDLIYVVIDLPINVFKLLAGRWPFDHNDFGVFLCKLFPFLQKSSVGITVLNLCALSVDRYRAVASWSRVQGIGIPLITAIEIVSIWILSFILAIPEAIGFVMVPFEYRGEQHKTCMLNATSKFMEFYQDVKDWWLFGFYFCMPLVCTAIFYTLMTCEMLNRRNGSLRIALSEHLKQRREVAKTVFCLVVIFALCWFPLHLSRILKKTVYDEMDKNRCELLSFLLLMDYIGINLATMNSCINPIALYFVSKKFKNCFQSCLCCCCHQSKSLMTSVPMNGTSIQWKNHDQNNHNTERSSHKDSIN
Nature of the test: Endothelin Receptor Binding Assay-A (ETA), intact cell binding of [125I]-ET-1. Set-up: species or system rabbit. As to conditions: Table IIa; for IC50: rabbit renal artery vascular smooth muscle cells, read-out: Binding Assay IC50 at Receptor Subtypes ETA. How it is done:
The cells used were rabbit renal artery vascular smooth muscle cells grown in a 48-well dish (1 cm^2) (confluent cells).
The growth media was Dulbeccos Modified Eagles/Ham's F12 which contained 10 fetal bovine serum and antibiotics (penicillin/streptomycin/fungizone).
Second, remove the assay buffers, place the dish on ice, and add 150 μL of cold assay buffer described above to each well. […] Next, place dish in a 37° C. water bath for about 2 hours and gently agitate the dish every 15 minutes. Discard the radioactive incubation mixture in the sink and wash wells 3 times with 1 mL of cold phosphate buffered saline. Last, add […] of 0.25M sodium hydroxide, agitate for 1 hour on rotator, and then transfer the sodium hydroxide extract to gamma counting tubes and count the radioactivity.

With `CC[C@H](C)[C@H](NC(=O)[C@H](CC(=O)O)NC(=O)[C@H](CC(C)C)NC(=O)[C@@H](Cc1cccc2ccccc12)NC(C)=O)C(=O)N[C@H](C(=O)N[C@@H](Cc1c[nH]c2ccccc12)C(=O)O)[C@@H](C)CC` [Example 45, Ac-1-D--Nal--Leu--Asp--Ile--Ile--Trp] (Ac-[d1Nal]LDIIW-OH), the values for the IC50 at ETB and on ETA were 450 nM and 300 nM, respectively.

`CC[C@H](C)[C@H](NC(=O)[C@H](CC(=O)O)NC(=O)[C@H](CC(C)C)NC(=O)[C@H](NC(=O)CC12CC3CC(CC(C3)C1)C2)C(c1ccccc1)c1ccccc1)C(=O)N[C@H](C(=O)N[C@@H](Cc1c[nH]c2ccccc12)C(=O)O)[C@@H](C)CC` [Example 35, Ada--D--Dip--Leu--Asp--Ile--Ile--Trp] ({Acetyl(1-adamantyl)}-[dDip]LDIIW-OH): the IC50 at ETB was determined as 500 nM; at ETA it was 4000 nM.

`CC[C@H](C)[C@H](NC(=O)[C@@H](NC(=O)[C@H](CC(=O)O)NC(=O)[C@H](CC(C)C)NC(=O)[C@H](NC(C)=O)C(c1ccccc1)c1ccccc1)C(C)C)C(=O)N[C@@H](Cc1c[nH]c2ccccc12)C(=O)O` [Example 81, Ac--D--Dip--Leu--Asp--Val--Ile--Trp] (Ac-[dDip]LDVIW-OH): the results for the IC50 at ETB and on ETA were 80 nM and 15 nM, respectively.

For `CC[C@H](C)[C@H](NC(=O)[C@H](CC(=O)O)NC(=O)[C@H](CC(C)C)NC(=O)[C@H](N)Cc1c(C)c(C)c(C)c(C)c1C)C(=O)N[C@H](C(=O)N[C@@H](Cc1c[nH]c2ccccc12)C(=O)O)[C@@H](C)CC` [Example 52, D--Pmp--Leu--Asp--Ile--Ile--Trp] (H-[X3]LDIIW-OH), the IC50 at ETB came to 3870 nM; at ETA, 6000 nM.

For `CC[C@H](C)[C@H](NC(=O)[C@H](CC(=O)O)NC(=O)[C@H](CC(C)C)NC(=O)[C@H](NC(=O)C(C)(C)C)C(c1ccccc1)c1ccccc1)C(=O)N[C@H](C(=O)N[C@@H](Cc1c[nH]c2ccccc12)C(=O)O)[C@@H](C)CC` [Example 38, tBu--D--Dip--Leu--Asp--Ile--Ile--Trp] (Piv-[dDip]LDIIW-OH), the IC50 at ETB came out at 500 nM; at ETA it was 10000 nM.

In the case of `CC[C@H](C)[C@H](NC(=O)[C@H](Cc1ccccc1)NC(=O)[C@H](CC(=O)O)NC(=O)[C@@H](Cc1ccccc1)NC(C)=O)C(=O)N[C@@H](Cc1c[nH]c2ccccc12)C(=O)O` [Example 93, Ac--D--Phe--Asp--Phe--Ile--Trp] (Ac-[dF]DFIW-OH), the inhibition at 10 µM at ETB (@ 10 μM, read-out: Binding Assay % Inhibition at Receptor Subtypes ETB) came out at 64.7%; on ETA (@ 10 μM, read-out: Binding Assay % Inhibition at Receptor Subtypes ETA), 37.4%.

Take `CC[C@H](C)[C@H](NC(=O)[C@H](CC(=O)O)NC(=O)[C@H](CC(C)C)NC(=O)C(C)(c1ccccc1)c1ccccc1)C(=O)N[C@H](C(=O)N[C@@H](Cc1c[nH]c2ccccc12)C(=O)O)[C@@H](C)CC` [Example 28, Bppa--Leu--Asp--Ile--Ile--Trp] (X1-LDIIW-OH): the IC50 at ETB is 1700 nM; on ETA, 8000 nM.

For the compound `CC[C@H](C)[C@H](NC(=O)[C@H](Cc1ccc(O)cc1)NC(=O)[C@H](N)C(c1ccccc1)c1ccccc1)C(=O)N[C@H](C(=O)N[C@@H](Cc1c[nH]c2ccccc12)C(=O)O)[C@@H](C)CC` [Example 95, D--Dip--Tyr--Ile--Ile--Trp] (H-[dDip]YIIW-OH), the IC50 at ETB is 350 nM; at ETA, 8000 nM.

As for `CC[C@H](C)[C@H](NC(=O)[C@H](CC(=O)O)NC(=O)[C@H](CC(C)C)NC(=O)[C@H](NC(C)=O)C(c1ccccc1)c1ccccc1)C(=O)N[C@H](C(=O)N[C@@H](Cc1c[nH]c2ccccc12)C(=O)O)C(C)C` [Example 86, Ac--D--Dip--Leu--Asp--Ile--Val--Trp] (Ac-[dDip]LDIVW-OH), the results for the IC50 on ETB and on ETA were 630 nM and 97 nM, respectively.

On to `CC[C@H](C)[C@H](NC(=O)[C@H](CC(=O)O)NC(=O)[C@H](CC(C)C)NC(=O)[C@H](NC(=O)C(F)(F)F)C(c1ccccc1)c1ccccc1)C(=O)N[C@H](C(=O)N[C@@H](Cc1c[nH]c2ccccc12)C(=O)O)[C@@H](C)CC` [Example 39, CF3 CO--D--Dip--Leu--Asp--Ile--Ile--Trp] (Tfa-[dDip]LDIIW-OH), for which the IC50 on ETB came out at 900 nM; at ETA it was 250 nM.

Consider `CC[C@H](C)[C@H](NC(=O)[C@H](CC(=O)O)NC(=O)[C@H](CC(C)C)NC(=O)[C@@H](Cc1ccccc1)NC(C)=O)C(=O)N[C@H](C(=O)N[C@@H](Cc1ccc(O)cc1)C(=O)O)[C@@H](C)CC` [Example 89, Ac--D--Phe--Leu--Asp--Ile--Ile--Tyr] (Ac-[dF]LDIIY-OH), for which the IC50 on ETB was 220 nM; on ETA, more than 10000 nM.

On to `CC[C@H](C)[C@H](NC(=O)[C@H](CC(=O)O)NC(=O)[C@H](C)NC(=O)[C@@H](Cc1ccccc1)NC(C)=O)C(=O)N[C@H](C(=O)N[C@@H](Cc1c[nH]c2ccccc12)C(=O)O)[C@@H](C)CC` [Example 59, Ac--D--Phe--Ala--Asp--Ile--Ile--Trp] (Ac-[dF]ADIIW-OH), for which the IC50 came out at 300 nM on ETB and 400 nM on ETA.

With `CC[C@H](C)[C@H](NC(=O)[C@H](CC(=O)O)NC(=O)[C@H](CC(C)C)NC(=O)[C@H](NC(=O)Cc1cccnc1)C(c1ccccc1)c1ccccc1)C(=O)N[C@H](C(=O)N[C@@H](Cc1c[nH]c2ccccc12)C(=O)O)[C@@H](C)CC` [Example 33, Pya--D--Dip--Leu--Asp--Ile--Ile--Trp] ({Acetyl(3-pyridyl)}-[dDip]LDIIW-OH), the IC50 worked out at 180 nM at ETB and 5000 nM at ETA.

With `CC[C@H](C)[C@H](NC(=O)[C@H](CC(=O)O)NC(=O)[C@H](CC(C)C)NC(=O)[C@H](NC(=O)OCC1c2ccccc2-c2ccccc21)C(c1ccccc1)c1ccccc1)C(=O)N[C@H](C(=O)N[C@@H](Cc1c[nH]c2ccccc12)C(=O)O)[C@@H](C)CC` [Example 30, Fmoc--D--Dip--Leu--Asp--Ile--Ile--Trp] (Fmoc-[dDip]LDIIW-OH), the IC50 at ETB and on ETA was 6000 nM in each case.

As for `CC[C@H](C)[C@H](NC(=O)[C@H](CC(=O)O)NC(=O)[C@H](CC(C)C)NC(=O)[C@H](NC(C)=O)C(c1ccccc1)c1ccccc1)C(=O)N[C@H](C(=O)N[C@@H](Cc1c[nH]c2ccccc12)C(N)=O)[C@@H](C)CC` [Example 24, Ac--D--Dip--Leu--Asp--Ile--Ile--Trp--NH2] (Ac-[dDip]LDIIW-NH2), the IC50 at ETB worked out at 5000 nM; at ETA, 320 nM.

For the compound `CC[C@H](C)[C@H](NC(=O)[C@H](CC(N)=O)NC(=O)[C@H](CC(C)C)NC(=O)[C@H](N)C(c1ccccc1)c1ccccc1)C(=O)N[C@H](C(=O)N[C@@H](Cc1c[nH]c2ccccc12)C(=O)O)[C@@H](C)CC` [Example 70, D--Dip--Leu--Asn--Ile--Ile--Trp] (H-[dDip]LNIIW-OH), the IC50 is 833 nM on ETB and 6430 nM on ETA.

Regarding `CC[C@H](C)[C@H](NC(=O)[C@H](CC(=O)O)NC(=O)[C@H](CC(C)C)NC(=O)[C@H](NC(C)=O)C(c1ccccc1)c1ccccc1)C(=O)N[C@H](C(=O)N[C@@H](Cc1ccc(O)cc1)C(=O)O)[C@@H](C)CC` [Example 88, Ac--D--Dip--Leu--Asp--Ile--Ile--Tyr] (Ac-[dDip]LDIIY-OH), the values for the IC50 at ETB and at ETA were 6300 nM and 3700 nM, respectively.

Turning to `CC[C@H](C)[C@H](NC(=O)[C@H](CCC(=O)O)NC(=O)[C@H](CC(=O)O)NC(=O)[C@H](CC(C)C)NC(=O)[C@H](NC(C)=O)C(c1ccccc1)c1ccccc1)C(=O)N[C@@H](Cc1c[nH]c2ccccc12)C(=O)O` [Example 19, Ac--D--Dip--Leu--Asp--Glu--Ile--Trp] (Ac-[dDip]LDEIW-OH), the IC50 on ETB came to 6000 nM; at ETA it was 1000 nM.

In general, IC50 refers to the concentration that gives 50% inhibition. By inhibition is commonly meant the percentage by which the read-out fell short of the control.
